This is an account of results in publication PMC7041978 (The Journal of Veterinary Medical Science, 2020).

Data set [1] has as its system Toxoplasma gondii RH-2F intracellular tachyzoites. Nature of the data set: Intracellular parasite growth assay. It is filed as cell-based. The following applies: added after 2-hr invasion, 48 hr.
The test system of data set [2] is human foreskin fibroblasts (HFF). Nature of the data set: Host cell cytotoxicity assay. It is filed as cell-based. The following applies: for Host cell inhibition (%): 10 µM compounds, HFF cells, 48 hr; for IC50: Homo sapiens, HFF, 48 h, read-out: IC50 for host cell.
In data set [3] the test system is Toxoplasma gondii RH-2F strain. Briefly: Parasite growth assay. It is filed as cell-based. The following applies: for IC50 / inhibition at 10 µM: Toxoplasma gondii, 48 h; for IC50: read-out: IC50 for parasite growth; for inhibition at 10 µM: HFF, read-out: Parasite inhibition (%).
The next data set deals with Toxoplasma gondii. The following applies: cited from earlier work.

Entries after “also recorded” stand apart in the source; their conditions may differ.

Broadly, the IC50 is the concentration at which inhibition is half-maximal. For orientation: inhibition means the relative decrease from the control value, in per cent.

For dextran sulfate [reference compound], the “Inhibition of intracellular parasite growth” value in data set [1] (25 mg/ml) is “hardly affected the intracellular parasites”.

On to `COc1ccc2cc3[n+](cc2c1OC)CCc1cc2c(cc1-3)OCO2` [Berberine Chloride], for which, in data set [2], the “Host cell inhibition (%)” value is listed as −3.0% and the IC50 is 2.8 µM. Also, in data set [2] (listed as berberine chloride), the “Host cell inhibition (%)” value is reported as “did not kill the host cells”. For the same molecule, in data set [3], the IC50 was 2.2 µM and the inhibition at 10 µM was 85.5%.

Consider `CCc1nc(N)nc(N)c1-c1ccc(Cl)cc1` [Pyrimethamine, reference compound], for which, in data set [1] (10 µM), the “Inhibition of intracellular parasite growth” value is listed as “inhibited the intracellular growth”. Moreover, the “Selectivity indexes (SI)” value in the data set with Toxoplasma gondii is given as 0.21.

In the case of `O=c1cc(-c2ccccc2)oc2cc(O)c(O)c(O)c12` [Baicalein], the “Inhibition of intracellular parasite growth” value is “effectively inhibited the intracellular parasite growth” in data set [1] (10 µM) and “effectively inhibited intracellular parasite growth” in data set [1] (10 µM, listed as baicalein). For the same molecule, the “Host cell inhibition (%)” value in data set [2] was 3.3%; in data set [2] (listed as baicalein) it was “did not kill the host cells”. Also, the IC50 in data set [2] is over 50 µM; in data set [3] it was 5 µM. In data set [3], the inhibition at 10 µM worked out at 80.1%.

With `Nc1ccc(S(=O)(=O)Nc2ncccn2)cc1` [sulphadiazine], the “Selectivity indexes (SI)” value in the data set with Toxoplasma gondii is 0.29.

With `C[C@H]1CC[C@@]2(OC1)O[C@H]1C[C@H]3[C@@H]4CC[C@@H]5C[C@@H](O[C@@H]6O[C@H](CO)[C@H](O)[C@H](O)[C@H]6O[C@@H]6O[C@H](CO)[C@@H](O)[C@H](O)[C@H]6O)CC[C@]5(C)[C@H]4CC[C@]3(C)[C@H]1[C@@H]2C` [Timosaponin A-III], the “Host cell inhibition (%)” value is listed as 98.3% in data set [2] and “killed almost all of the host cells” in data set [2] (listed as timosaponin A-III). Also, in data set [3], the inhibition at 10 µM was 81.4%.

Consider `O=c1cc(-c2ccc(O)c(O)c2)oc2cc(O)cc(O)c12` [Luteolin], for which the “Inhibition of intracellular parasite growth” value in data set [1] (10 µM) is “effectively inhibited the intracellular parasite growth”. Further, the IC50 in data set [2] was over 50 µM. In data set [3], the IC50 came out at 5.7 µM and the inhibition at 10 µM worked out at 74.3%.

Consider `c1c2c(cc3c1OCO3)-c1cc3ccc4c(c3c[n+]1CC2)OCO4` [Coptisine Chloride], for which, in data set [2], the “Host cell inhibition (%)” value is reported as 6.4% and the IC50 was over 50 µM. The “Host cell inhibition (%)” value in data set [2] (listed as coptisine chloride) was “did not kill the host cells”. Besides, in data set [3], the IC50 was 2.1 µM and the inhibition at 10 µM came out at 73.3%. Further, the “Dose dependence of parasite growth inhibition” value in data set [3] (high concentrations, data not shown) is “did not inhibit parasite growth in a dose-dependent manner”.

On to `CC(C)=CC[C@@H](O)C1=CC(=O)c2c(O)ccc(O)c2C1=O` [Shikonin], for which, in data set [2], the “Host cell inhibition (%)” value worked out at 43.4% and the IC50 is 17.8 µM. The “Host cell inhibition (%)” value in data set [2] (listed as shikonin) was “did not kill the host cells; also recorded: killed some of the host cells”. Also, in data set [3], the IC50 is 1.4 µM and the inhibition at 10 µM turned out to be 87.3%.

Turning to `CC(C)=CC[C@H](O)C1=CC(=O)c2c(O)ccc(O)c2C1=O` [Alkannin], in data set [2], the “Host cell inhibition (%)” value is given as −0.3% and the IC50 stood at 5.4 µM. Further, in data set [2] (listed as alkannin), the “Host cell inhibition (%)” value is “did not kill the host cells”. In data set [3], the IC50 worked out at 1.3 µM and the inhibition at 10 µM worked out at 86.9%.
